Measurements from PMC6576746, “Rational discovery of dual-indication multi-target PDE/Kinase inhibitor for precision anti-cancer therapy using structural systems pharmacology” (PLoS Computational Biology, 2019).

What was measured:
Assay in all cases: biochemical
Parameters in all cases: DiscoverX KinomeScan competition binding assay across human kinases; per cent of control at 10 and 100 uM
[1] = molecular target: CSNK2A1 (Homo sapiens, UniProt P68400); settings: competition binding, % of control; read-out: Percent Control (100 uM Levosimendan)
Summary of the method: (§1)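 Binding is expressed as %control, normalised between positive and negative control signals. The compound (levosimendan) was tested at 10 μM and 100 μM in the DiscoverX KinomeScan competition binding format against human kinases.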

[2] = molecular target: TTK (Homo sapiens, UniProt P33981); settings: competition binding, % of control; read-out: Percent Control (100 uM Levosimendan)
Summary of the method: as §1

[3] = molecular target: T1, ABL1(H396P)-phosphorylated (Homo sapiens, UniProt P00519, H396P); settings: competition binding, % of control; read-out: Percent Control (100 uM Levosimendan)
T1 construct: phosphorylated
Summary of the method: as §1

[4] = molecular target: AURKB (Homo sapiens, UniProt Q96GD4); settings: competition binding, % of control
Summary of the method: as §1

[5] = molecular target: FLT4 (Homo sapiens, UniProt P35916); settings: competition binding, % of control
Summary of the method: as §1

[6] = molecular target: T2, p38-gamma (Homo sapiens, UniProt P53778); settings: competition binding, % of control
T2 construct: gene MAPK12
Summary of the method: as §1

[7] = molecular target: PIP5K1C (Homo sapiens, UniProt O60331); settings: competition binding, % of control
Summary of the method: as §1

[8] = molecular target: SBK1 (Homo sapiens, UniProt Q52WX2); settings: competition binding, % of control; read-out: Percent Control (100 uM Levosimendan)
Summary of the method: as §1

[9] = molecular target: INSR (Homo sapiens, UniProt P06213); settings: competition binding, % of control; read-out: Percent Control (100 uM Levosimendan)
Summary of the method: as §1

[10] = molecular target: T3, DMPK2 (Homo sapiens, UniProt Q6DT37); settings: competition binding, % of control; read-out: Percent Control (100 uM Levosimendan)
T3 construct: gene CDC42BPG
Summary of the method: as §1

[11] = molecular target: SLK (Homo sapiens, UniProt Q9H2G2); settings: competition binding, % of control; read-out: Percent Control (100 uM Levosimendan)
Summary of the method: as §1

[12] = molecular target: CSF1R (Homo sapiens, UniProt P07333); settings: competition binding, % of control
Summary of the method: as §1

[13] = molecular target: ERN1 (Homo sapiens, UniProt O75460); settings: competition binding, % of control; read-out: Percent Control (100 uM Levosimendan)
Summary of the method: as §1

[14] = molecular target: EGFR(G719S) (Homo sapiens, UniProt P00533, G719S); settings: competition binding, % of control
Summary of the method: as §1

[15] = molecular target: KIT-autoinhibited (Homo sapiens, UniProt P10721); settings: competition binding, % of control
Summary of the method: as §1

[16] = molecular target: CDK7 (Homo sapiens, UniProt P50613); settings: competition binding, % of control; read-out: Percent Control (100 uM Levosimendan)
Summary of the method: as §1

[17] = molecular target: DYRK1A (Homo sapiens, UniProt Q13627); settings: competition binding, % of control; read-out: Percent Control (100 uM Levosimendan)
Summary of the method: as §1

[18] = molecular target: BRAF(V600E) (Homo sapiens, UniProt P15056, V600E); settings: competition binding, % of control; read-out: Percent Control (100 uM Levosimendan)
Summary of the method: as §1

[19] = read-out: Percent Control (10 uM Levosimendan)
[20] = read-out: Percent Control (100 uM Levosimendan)

Chain of AURKB (Q96GD4 whole entry): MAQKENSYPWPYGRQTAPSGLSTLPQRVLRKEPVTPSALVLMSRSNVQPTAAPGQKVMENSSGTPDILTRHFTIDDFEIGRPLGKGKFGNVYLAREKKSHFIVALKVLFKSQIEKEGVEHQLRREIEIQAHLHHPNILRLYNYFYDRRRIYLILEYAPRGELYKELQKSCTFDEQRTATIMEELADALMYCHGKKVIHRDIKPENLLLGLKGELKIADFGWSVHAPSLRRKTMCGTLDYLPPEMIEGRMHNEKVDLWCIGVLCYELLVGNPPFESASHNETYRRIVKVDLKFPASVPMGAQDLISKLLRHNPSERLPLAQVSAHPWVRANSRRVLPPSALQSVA
Chain of CSF1R (P07333 whole entry): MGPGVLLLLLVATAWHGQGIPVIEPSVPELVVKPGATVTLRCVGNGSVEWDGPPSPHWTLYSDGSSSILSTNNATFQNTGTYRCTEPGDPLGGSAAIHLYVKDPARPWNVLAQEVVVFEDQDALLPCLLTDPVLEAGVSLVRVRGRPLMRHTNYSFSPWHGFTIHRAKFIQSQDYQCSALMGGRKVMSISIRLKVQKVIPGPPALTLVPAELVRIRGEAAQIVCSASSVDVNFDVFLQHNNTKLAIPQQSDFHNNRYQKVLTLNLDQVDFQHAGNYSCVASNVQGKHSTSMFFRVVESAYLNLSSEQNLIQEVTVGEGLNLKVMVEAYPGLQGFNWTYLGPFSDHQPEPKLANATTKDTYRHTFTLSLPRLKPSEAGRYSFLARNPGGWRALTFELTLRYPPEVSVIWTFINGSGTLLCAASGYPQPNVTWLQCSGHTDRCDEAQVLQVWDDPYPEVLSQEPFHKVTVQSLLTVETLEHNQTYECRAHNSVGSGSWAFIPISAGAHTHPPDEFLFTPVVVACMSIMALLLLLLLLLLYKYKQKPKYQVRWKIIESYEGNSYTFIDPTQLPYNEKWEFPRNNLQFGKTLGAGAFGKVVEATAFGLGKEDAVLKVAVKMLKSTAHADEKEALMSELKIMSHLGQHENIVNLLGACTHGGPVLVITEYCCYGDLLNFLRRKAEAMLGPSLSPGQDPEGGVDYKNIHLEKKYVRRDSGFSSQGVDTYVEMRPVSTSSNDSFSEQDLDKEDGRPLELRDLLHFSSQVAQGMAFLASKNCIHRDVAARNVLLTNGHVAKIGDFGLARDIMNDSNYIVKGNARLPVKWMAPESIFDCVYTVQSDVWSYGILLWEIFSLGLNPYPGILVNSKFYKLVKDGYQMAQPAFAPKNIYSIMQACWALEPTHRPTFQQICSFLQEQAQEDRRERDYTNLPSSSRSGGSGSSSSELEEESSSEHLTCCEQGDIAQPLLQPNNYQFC
Chain of EGFR(G719S) (P00533 whole entry G719S): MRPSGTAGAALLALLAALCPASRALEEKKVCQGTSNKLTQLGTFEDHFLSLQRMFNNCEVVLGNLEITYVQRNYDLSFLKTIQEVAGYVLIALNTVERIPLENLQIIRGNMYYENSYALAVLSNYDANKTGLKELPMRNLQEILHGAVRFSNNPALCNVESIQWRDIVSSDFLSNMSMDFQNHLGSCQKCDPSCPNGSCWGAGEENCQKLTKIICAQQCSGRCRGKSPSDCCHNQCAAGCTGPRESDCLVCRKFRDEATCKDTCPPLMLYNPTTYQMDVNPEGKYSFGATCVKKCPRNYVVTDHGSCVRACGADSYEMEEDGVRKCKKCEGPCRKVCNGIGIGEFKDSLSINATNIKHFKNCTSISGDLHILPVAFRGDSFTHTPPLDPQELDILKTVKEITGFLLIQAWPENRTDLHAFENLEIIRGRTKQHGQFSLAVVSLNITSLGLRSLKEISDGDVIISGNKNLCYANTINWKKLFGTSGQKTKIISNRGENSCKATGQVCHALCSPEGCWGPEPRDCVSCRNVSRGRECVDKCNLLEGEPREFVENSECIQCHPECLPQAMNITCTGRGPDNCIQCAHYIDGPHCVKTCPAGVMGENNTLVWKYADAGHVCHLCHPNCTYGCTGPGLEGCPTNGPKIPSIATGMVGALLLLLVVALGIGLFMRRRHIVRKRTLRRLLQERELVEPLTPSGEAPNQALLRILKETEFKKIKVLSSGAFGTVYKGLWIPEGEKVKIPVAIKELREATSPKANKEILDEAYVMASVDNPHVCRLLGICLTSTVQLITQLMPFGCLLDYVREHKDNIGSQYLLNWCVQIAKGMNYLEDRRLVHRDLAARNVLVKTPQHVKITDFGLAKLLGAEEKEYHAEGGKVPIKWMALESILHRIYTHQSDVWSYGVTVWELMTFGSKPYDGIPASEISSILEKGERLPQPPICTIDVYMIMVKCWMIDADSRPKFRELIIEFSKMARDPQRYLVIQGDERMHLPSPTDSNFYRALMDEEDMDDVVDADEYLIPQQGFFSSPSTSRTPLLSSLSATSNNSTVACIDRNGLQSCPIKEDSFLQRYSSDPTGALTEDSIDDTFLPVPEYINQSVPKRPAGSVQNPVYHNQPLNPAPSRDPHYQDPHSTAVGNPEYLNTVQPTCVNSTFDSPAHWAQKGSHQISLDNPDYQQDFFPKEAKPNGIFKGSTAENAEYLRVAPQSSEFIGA
T2 sequence (P53778 whole entry): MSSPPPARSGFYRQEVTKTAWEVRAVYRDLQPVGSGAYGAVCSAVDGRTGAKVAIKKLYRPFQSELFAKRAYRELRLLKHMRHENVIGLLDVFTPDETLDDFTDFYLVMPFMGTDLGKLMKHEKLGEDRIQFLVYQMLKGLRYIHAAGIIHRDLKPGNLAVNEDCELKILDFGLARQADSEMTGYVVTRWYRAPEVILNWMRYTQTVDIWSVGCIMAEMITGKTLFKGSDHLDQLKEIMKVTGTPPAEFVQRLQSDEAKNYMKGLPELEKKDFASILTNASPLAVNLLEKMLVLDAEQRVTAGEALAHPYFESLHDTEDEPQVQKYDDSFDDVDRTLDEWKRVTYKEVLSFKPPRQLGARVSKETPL
Chain of FLT4 (P35916 whole entry): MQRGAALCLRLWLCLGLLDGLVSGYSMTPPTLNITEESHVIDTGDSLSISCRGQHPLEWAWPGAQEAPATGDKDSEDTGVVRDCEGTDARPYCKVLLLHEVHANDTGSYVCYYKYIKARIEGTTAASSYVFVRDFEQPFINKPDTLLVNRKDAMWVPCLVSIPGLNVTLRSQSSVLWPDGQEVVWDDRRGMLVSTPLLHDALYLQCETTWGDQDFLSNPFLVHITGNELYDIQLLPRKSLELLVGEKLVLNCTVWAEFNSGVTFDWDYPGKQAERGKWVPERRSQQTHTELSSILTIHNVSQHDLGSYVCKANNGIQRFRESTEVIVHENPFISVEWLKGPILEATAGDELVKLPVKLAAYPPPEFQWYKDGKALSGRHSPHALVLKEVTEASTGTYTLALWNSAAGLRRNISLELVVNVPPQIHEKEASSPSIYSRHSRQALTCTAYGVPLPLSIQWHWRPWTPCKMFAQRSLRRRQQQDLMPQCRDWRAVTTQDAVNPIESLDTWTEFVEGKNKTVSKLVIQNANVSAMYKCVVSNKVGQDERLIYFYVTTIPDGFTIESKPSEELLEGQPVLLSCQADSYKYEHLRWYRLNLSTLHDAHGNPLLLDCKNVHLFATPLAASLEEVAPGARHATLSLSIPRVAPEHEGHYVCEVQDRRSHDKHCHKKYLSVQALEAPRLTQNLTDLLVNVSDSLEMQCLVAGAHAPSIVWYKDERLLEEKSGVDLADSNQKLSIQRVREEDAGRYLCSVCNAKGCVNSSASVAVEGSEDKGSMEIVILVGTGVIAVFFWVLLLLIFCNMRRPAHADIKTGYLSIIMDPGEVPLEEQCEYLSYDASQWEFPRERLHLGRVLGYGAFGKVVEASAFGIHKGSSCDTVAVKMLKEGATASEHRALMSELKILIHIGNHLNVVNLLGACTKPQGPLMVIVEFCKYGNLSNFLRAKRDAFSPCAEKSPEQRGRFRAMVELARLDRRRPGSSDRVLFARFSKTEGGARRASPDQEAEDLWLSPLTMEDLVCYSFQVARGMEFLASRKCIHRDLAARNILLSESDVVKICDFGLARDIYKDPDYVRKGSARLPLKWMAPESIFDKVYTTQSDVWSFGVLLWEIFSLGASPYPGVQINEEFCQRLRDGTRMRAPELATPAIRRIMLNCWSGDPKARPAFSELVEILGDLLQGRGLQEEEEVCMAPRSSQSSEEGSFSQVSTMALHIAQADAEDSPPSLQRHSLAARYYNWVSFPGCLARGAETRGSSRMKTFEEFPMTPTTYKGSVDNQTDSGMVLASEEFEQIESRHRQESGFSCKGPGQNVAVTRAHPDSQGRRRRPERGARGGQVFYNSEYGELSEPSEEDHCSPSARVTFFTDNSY
Chain of PIP5K1C (O60331 whole entry): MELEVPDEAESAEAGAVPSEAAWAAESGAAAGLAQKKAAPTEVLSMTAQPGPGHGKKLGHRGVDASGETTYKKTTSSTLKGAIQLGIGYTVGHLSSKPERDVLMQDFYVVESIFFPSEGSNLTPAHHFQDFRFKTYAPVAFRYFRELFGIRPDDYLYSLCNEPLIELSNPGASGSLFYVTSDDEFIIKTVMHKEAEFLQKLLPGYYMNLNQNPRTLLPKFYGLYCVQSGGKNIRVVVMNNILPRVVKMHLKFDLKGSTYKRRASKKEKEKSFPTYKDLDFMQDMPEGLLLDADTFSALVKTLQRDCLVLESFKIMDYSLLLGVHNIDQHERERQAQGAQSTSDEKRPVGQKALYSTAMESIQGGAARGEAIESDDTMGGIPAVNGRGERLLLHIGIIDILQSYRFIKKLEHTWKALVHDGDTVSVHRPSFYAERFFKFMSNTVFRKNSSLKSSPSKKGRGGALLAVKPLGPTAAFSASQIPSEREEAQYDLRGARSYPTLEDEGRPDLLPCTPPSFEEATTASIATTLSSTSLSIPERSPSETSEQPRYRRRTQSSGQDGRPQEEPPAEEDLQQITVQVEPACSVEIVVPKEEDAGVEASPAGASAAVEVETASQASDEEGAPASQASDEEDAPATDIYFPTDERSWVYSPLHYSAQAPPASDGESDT

C[C@@H]1CC(=O)NN=C1c1ccc(NN=C(C#N)C#N)cc1 [levosimendan]
remaining binding at 100 µM [1]: 100%
remaining binding at 100 µM [2]: 86%
remaining binding at 100 µM [3]: 68%
remaining binding at 10 µM [4, 19]: 75%
remaining binding at 100 µM [4, 20]: 28%
remaining binding at 10 µM [5, 19]: 100%
remaining binding at 100 µM [5, 20]: 49%
remaining binding at 10 µM [6, 19]: 92%
remaining binding at 100 µM [6, 20]: 52%
remaining binding at 10 µM [7, 19]: 91%
remaining binding at 100 µM [7, 20]: 50%
remaining binding at 100 µM [8]: 78%
remaining binding at 100 µM [9]: 76%
remaining binding at 100 µM [10]: 70%
remaining binding at 100 µM [11]: 85%
remaining binding at 10 µM [12, 19]: 78%
remaining binding at 100 µM [12, 20]: 40%
remaining binding at 100 µM [13]: 79%
remaining binding at 10 µM [14, 19]: 79%
remaining binding at 100 µM [14, 20]: 41%
remaining binding at 10 µM [15, 19]: 76%
remaining binding at 100 µM [15, 20]: 52%
remaining binding at 100 µM [16]: 100%
remaining binding at 100 µM [17]: 89%
remaining binding at 100 µM [18]: 78%
